Source: US20160264593A1 (priority 2013, published 2016)
Several values for one entry are separate records, joined by “and”; a condition that tells them apart may be missing. Equal entries are not always repeated. Where two headings read alike, the source gives them in different places.

Assays:
[1] = system: PP2A; test: PP2A activity in mouse livers after IP dosing (PP2A immunoprecipitation phosphatase assay, malachite green); assay type: in vivo, Balb/c mice; details: liver
Procedure: (§1) Coomassie (Bradford) Protein Assay Kit (Pierce); PP2A Immunoprecipitation Phosphatase Assay Kit (Millipore); Lysate preparation for low endogenous phosphate: 20 mM imidazole-HCl, 2 mM EDTA, 2 mM EGTA, 1 mM PMSF, 1 mM benzamidine, 10 ug/ml each of aprotinin, leupeptin, antipain, soybean trypsin inhibitor; Normal Mouse IgG (Millipore); Okadaic acid (OA) (Tocris); DMSO (Sigma).
(§2) • Species: Mus Musculus • Strain: Balb/c mice • Age: 6-8 weeks • Sex: female • Body weight: 18-22 g • Vendor: Shanghai Laboratory Animal Center, Shanghai, China; • Number of animals: 66 Balb/c mice plus spare
(§3) The mice were kept in laminar flow rooms at constant temperature and humidity with 4 animals in each cage. • Temperature: 20-25 • Humidity: 40-70%. • Light cycle: 12 hours light and 12 hours dark. • Cages: Made of polycarbonate. The size is 29 cm×17.5 cm×12 cm (L×w×H). The bedding material is wood debris, which is changed once per week. • Diet: Animals had free access to irradiation sterilized dry granule food during the entire study period. • Water: Animals had free access to sterile drinking water. • Cage identification: the identification labels for each cage contained the following information: number of animals, sex, strain, date arrival, treatment, study number, group number, and the starting date of the treatment. • Animal identification: Animals were marked by ear punch.
(§4) All the procedures related to animal handling, care, and the treatment in this study were performed according to guidelines approved by the Institutional Animal Care and Use Committee (IACUC) of WuXi AppTec (Shanghai), following the guidance of the Association for Assessment and Accreditation of Laboratory Animal Care (AAALAC). At the time of routine monitoring, the animals were checked and recorded for any effects of tumor growth on normal behavior such as mobility, food and water consumption (by looking only), body weight gain/loss, eye/hair matting and any other abnormal effect.
(§5) 1. Proper amount of the compounds were weighed. 2. The compounds were dissolved in 4% sterile sodium bicarbonate. 3. All of the compounds should be well dissolved and clear. 4. The compounds should be kept cold once in solution and injected within an hour. 5. The mice were administered intraperitoneally according to their body weights, 20 g mouse was treated with 0.2 ml compound solution. 6. Mice were treated with vehicle and compounds according to Table 1. 7. 3 hours after the dose, 3 mice from each group were euthanized by
(§6) CO2 exposure, and the brains and left lobe of livers were taken and snap-frozen in liquid nitrogen immediately. 6 hours after the dose, the other 3 mice from each group were euthanized by CO2 exposure, and the brains and left lobe of livers were taken and snap-frozen in liquid nitrogen immediately.
(§7) Preparation of malachite green phosphate detection solution Added […] of Solution B to each 1 mL of Solution A, kept at room temperature during use. […] of mixed solution AB is used per assay well.
(§8) Diluted 125 mL Phosphate Standard (Solution C) with 1125 mL of distilled water to make 0.1 mM working solution. The solution was used to prepare a phosphate standard curve as described in the table below.
(§9) 1. 25 μL of each phosphate standards was transferred to wells of microliter plate. 2. Added 100 μL of Malachite Green Solution AB. Mixed carefully without creating bubbles. 3. Cultured for 15 minutes at RT. 4. Measured absorbance at a wavelength between 650 nm in a microliter plate reader.
(§10) 1. Dissolved 1 mg Threonine Phosphopeptide (Catalog #12-219) in 1.10 mL of distilled water to prepare a 1 mM solution. 2. Aliquot peptide solution and stored at ˜20° C. as necessary.
(§11) 1. Mouse brain or liver was homogenized using lysis buffer (25 g/L), centrifuged at 12000 g for 10 minutes at […], and the supernatants were collected. 2. The protein was quantitated, and 240 μg of mouse brain or liver lysate was taken to assay phosphatase activity. 3. […]

[2] = system: PP2A; test: PP2A activity in mouse brains after IP dosing (PP2A immunoprecipitation phosphatase assay, malachite green); assay type: in vivo, Balb/c mice; details: brain
Procedure: as §1, §2, §3, §4, §5, §6, §7, §8, §9, §10, §11

[3] = system: glioblastoma (U-87) cells; test: WST cell viability assay, U-87 MG; assay type: cell-based; details: Homo sapiens, U-87 MG
[4] = system: lung cancer (A549) cells; test: WST cell viability assay, A549; assay type: cell-based; details: Homo sapiens, A549, read-out: IC50 A549
[5] = system: breast cancer (2LMP) cells; test: WST cell viability assay, 2LMP
Text: IC50 values were obtained for cytotoxicity against breast cancer (2LMP), glioblastoma (U-87) and lung cancer (A549) cells (See Table 5 and FIGS. 3-5).

[6] = high dose IP (mpk: 100 1.5, 113 2.2, 151 1.6, 157 2.0), 3 h
[7] = high dose IP (mpk: 100 1.5, 113 2.2, 151 1.6, 157 2.0), 6 h
[8] = low dose IP (mpk: 100 0.75, 113 1.1, 151 0.8, 153 0.85, 157 1.0), 3 h
[9] = low dose IP (mpk: 100 0.75, 113 1.1, 151 0.8, 153 0.85, 157 1.0), 6 h
[10] = high dose IP (mpk: 100 1.5, 113 2.2, 151 1.6, 153 1.7, 157 2.0), 3 h
[11] = high dose IP (mpk: 100 1.5, 113 2.2, 151 1.6, 153 1.7, 157 2.0), 6 h

Structure (SMILES): CN1CCN(C(=O)C2C3CCC(O3)C2C(=O)O)CC1 (stereo not shown) [Compound 100, 3-(4-methylpiperazine-1-carbonyl)-7-oxa-bicyclo[2,2,1]-heptane-2-carboxylic acid]
- Average Conc. (group of 3 mice) [1, 6]: 290.15
- Average Relative Activity (group, vehicle = 100) [1, 6]: 73.9
- Conc. (phosphate, single reading, per mouse) [1, 6]: 340.38 and 353.99 and 282.08 and 493.05 and 279.92 and 293.74
- Mean Conc. (per mouse) [1, 6]: 347.18 and 387.56 and 286.83
- Mean Conc. less IgG blank (per mouse) [1, 6]: 296.81 and 337.19 and 236.46
- Relative Conc. (per mouse, to vehicle) [1, 6]: 0.76 and 0.86 and 0.6
- Relative PP2A Activity (per mouse, vehicle = 100) [1, 6]: 75.64 and 85.93 and 60.26
- Average Conc. (group of 3 mice) [1, 7]: 197.91
- Average Relative Activity (group, vehicle = 100) [1, 7]: 50.5
- Conc. (phosphate, single reading, per mouse) [1, 7]: 154.46 and 167.2 and 290.5 and 323.97 and 262.21 and 291.36
- Mean Conc. (per mouse) [1, 7]: 160.83 and 307.23 and 276.79
- Mean Conc. less IgG blank (per mouse) [1, 7]: 110.45 and 256.86 and 226.41
- Relative Conc. (per mouse, to vehicle) [1, 7]: 0.28 and 0.66 and 0.58
- Relative PP2A Activity (per mouse, vehicle = 100) [1, 7]: 28.21 and 65.59 and 57.82
- Average Conc. (group of 3 mice) [1, 8]: 289.29
- Average Relative Activity (group, vehicle = 100) [1, 8]: 73.7
- Conc. (phosphate, single reading, per mouse) [1, 8]: 292.01 and 308.85 and 318.57 and 329.58 and 359.6 and 429.35
- Mean Conc. (per mouse) [1, 8]: 300.43 and 324.08 and 394.47
- Mean Conc. less IgG blank (per mouse) [1, 8]: 250.06 and 273.7 and 344.1
- Relative Conc. (per mouse, to vehicle) [1, 8]: 0.64 and 0.7 and 0.88
- Relative PP2A Activity (per mouse, vehicle = 100) [1, 8]: 63.73 and 69.75 and 87.69
- Average Conc. (group of 3 mice) [1, 9]: 316.5
- Average Relative Activity (group, vehicle = 100) [1, 9]: 80.8
- Conc. (phosphate, single reading, per mouse) [1, 9]: 391.13 and 414.88 and 358.3 and 359.17 and 328.94 and 348.8
- Mean Conc. (per mouse) [1, 9]: 403 and 358.74 and 338.87
- Mean Conc. less IgG blank (per mouse) [1, 9]: 352.63 and 308.36 and 288.5
- Relative Conc. (per mouse, to vehicle) [1, 9]: 0.9 and 0.79 and 0.74
- Relative PP2A Activity (per mouse, vehicle = 100) [1, 9]: 90.05 and 78.74 and 73.67
- Average Conc. (group of 3 mice) [2, 10]: 1176.58
- Average Relative Activity (group, vehicle = 100) [2, 10]: 80.09
- Conc. (phosphate, single reading, per mouse) [2, 10]: 1090.16 and 1146.07 and 1273.56 and 1349.24 and 1116.43 and 1122.21
- Mean Conc. (per mouse) [2, 10]: 1118.11 and 1311.40 and 1119.32
- Mean Conc. less IgG blank (per mouse) [2, 10]: 1111.75 and 1305.03 and 1112.95
- Relative Conc. (per mouse, to vehicle) [2, 10]: 0.77 (2×) and 0.90
- Relative PP2A Activity (per mouse, vehicle = 100) [2, 10]: 75.68 and 88.84 and 75.76
- Average Conc. (group of 3 mice) [2, 11]: 1430.23
- Average Relative Activity (group, vehicle = 100) [2, 11]: 102.54
- Conc. (phosphate, single reading, per mouse) [2, 11]: 1524.93 and 1576.74 and 1180.05 and 1223.91 and 1496.73 and 1617.23
- Mean Conc. (per mouse) [2, 11]: 1550.84 and 1201.98 and 1556.98
- Mean Conc. less IgG blank (per mouse) [2, 11]: 1544.47 and 1195.62 and 1550.62
- Relative Conc. (per mouse, to vehicle) [2, 11]: 1.12 (2×) and 0.87
- Relative PP2A Activity (per mouse, vehicle = 100) [2, 11]: 110.73 and 85.72 and 111.17
- Average Conc. (group of 3 mice) [2, 8]: 1143.44
- Average Relative Activity (group, vehicle = 100) [2, 8]: 77.84
- Conc. (phosphate, single reading, per mouse) [2, 8]: 1131.61 and 1148.72 and 982.91 and 1046.54 and 1270.67 and 1318.39
- Mean Conc. (per mouse) [2, 8]: 1140.17 and 1014.72 and 1294.53
- Mean Conc. less IgG blank (per mouse) [2, 8]: 1133.80 and 1008.36 and 1288.16
- Relative Conc. (per mouse, to vehicle) [2, 8]: 0.78 and 0.69 and 0.89
- Relative PP2A Activity (per mouse, vehicle = 100) [2, 8]: 77.18 and 68.64 and 87.69
- Average Conc. (group of 3 mice) [2, 9]: 1009.84
- Average Relative Activity (group, vehicle = 100) [2, 9]: 72.40
- Conc. (phosphate, single reading, per mouse) [2, 9]: 996.89 and 1024.12 and 978.81 and 1073.53 and 990.38 and 1033.52
- Mean Conc. (per mouse) [2, 9]: 1010.51 and 1026.17 and 1011.95
- Mean Conc. less IgG blank (per mouse) [2, 9]: 1004.14 and 1019.81 and 1005.59
- Relative Conc. (per mouse, to vehicle) [2, 9]: 0.73 (2×) and 0.74
- Relative PP2A Activity (per mouse, vehicle = 100) [2, 9]: 71.99 and 73.11 and 72.09
- IC50 ([3]; read-out: IC50 U-87 MG, WST-20131017 (first value of the cell)): 19.9 µM
- IC50 ([3]; read-out: IC50 U-87 MG, WST-20131024 (second value of the cell)): 25.2 µM
- IC50 [4]: 10.3 µM
- IC50 ([5]; read-out: IC50 2LMP, WST-20131015 (first value of the cell)): 3.41 µM
- IC50 ([5]; read-out: IC50 2LMP, WST-20131025 (second value of the cell)): 6.98 µM
